Assay results from patent US9968635B2, “Treatment of skin and soft tissue infection with nitric oxide” (priority 2012, dated 2018).

Key:
[1] = Weight gain of carriers on bubbling nitric oxide gas; format: physicochemical; details: NO gas bubbled 40 hr, 25 °C
Method: This example illustrates one technique for preparing a composition in accordance with one embodiment of the invention. An accurate amount of a carrier (HNC 167-62) (see below) was introduced into a system. The carrier weight used in these experiments was approximately 250 g and the vessel size was 500 ml. The vessel was equipped with a mechanical stirrer, gas inlet, and gas outlet and was previously purged with argon for about an hour. The temperature of the carrier was kept at about 25-30° C. NO gas regulated at 5 psi (1 psi is about 6,900 Pa) and was then introduced at a controlled rate of about 1 bubble/s with continuous stirring. […] After 6 hours, the weight of the carrier had increased by 0.15%, by 12 hours by 0.25%, and by 24 hours by 0.56%. These increases in weight were believed to be significant considering the relative small molecular weight of NO versus the carrier. […] The carrier also can solidify upon cooling if the carrier is initially a solid at lower temperature.
Each carrier was taken in a 500 mL three necked flask equipped with a mechanical stirrer, gas inlet and a gas outlet. The system was purged with argon for one hour at room temperature (25° C.). Then nitric oxide gas was bubbled into the system. Then, nitric oxide gas was bubbled through carrier for stipulated amount of time. The changes in weight and color were noted. […]

[2] = test system: capillary circulation of the skin; experiment: Laser Doppler study of creams in five human subjects (Example 7); format: in vivo; details: positive control formulation containing 0.1% methyl nicotinate
Excerpt: This example illustrates delivery of nitric oxide formulations to five human subjects, using procedures and formulations similar to those discussed in Example 5. Each person served as their own control for the testing. A Moor Instruments Laser Doppler was used to determine circulation. […] The formulations used produce positive, almost immediate results when applied to the skin which, in these studies, was manifested by vasodilatation of the cutaneous vascular system. For each subject, the following creams were applied: a negative control formulation (containing no NO), 0.010 gram of a 10,000 ppm NO formulation, 0.020 gram of a 10,000 ppm NO formulation, and a positive control formulation containing 0.1% methyl nicotinate. The formulations were prepared using procedures similar to those discussed in Example 1.

[3] = test system: micro-capillary blood flow to skin; experiment: Laser Doppler study with closed Hilltop chamber on forearm, 10,000 ppm NO (Example 5); format: in vivo, human; details: applied to the skin at 1/10% in alcohol
Excerpt: The formulation used in these studies contained nitric oxide dispersed in a lipid matrix. […] Nitric oxide is a very rapid acting molecule, and these studies used a system that employed laser Doppler with a covered chamber. The formulation was placed into the chamber and then attached to the skin by an adhesive layer on the covering. This provided a stable measuring device as determined by multiple normal evaluations of the capillary blood flow without treatment of nitric oxide.
A known positive control, methyl nicotinate, was applied to the skin at a concentration of 1/10% in alcohol. […] The vascular dynamics are such that when the blood vessels dilate physical parameters follow Bernoulli's law. […] The laser Doppler device accurately measured these parameters.
In these studies, the participants were healthy females aged 30 to 55 years. They were in good health as determined by the medical history and were not taking any prescription medications. All study participants read and signed the informed consent statement prior to any study procedures being performed. […]
A Moor Instruments DRT4 Laser Doppler Blood Flow Monitor (Devon, England) was used in these studies. The laser Doppler technique measured blood flow in the microcapillaries of the skin that are close to the skin surface and the blood flow in underlying arterioles and venules that help to regulate skin temperature. […]

Structure (SMILES)	% Wt. gain [1]	Wt. Gain [1]	vasodilatation [2]	laser Doppler response of positive control [3]
OCCCO [1,3-Propanediol, 1,3-propanediol]	0.09%	0.16 g	–	–
COC(=O)c1cccnc1 [methyl nicotinate]	–	–	vasodilatation was observed	rapid response typical of the vasodilator
